Results: patent EP4178570B1, “VETERINARY COMPOSITIONS FOR PREVENTING AND/OR TREATING LEISHMANIOSIS” (priority 2020, dated 2022)
Where “and” joins values, the source holds several entries; their conditions need not be identical. Identical values can stand only once.

Assays:
[1] = test system: L. infantum life stage forms (promastigote and amastigote); conditions: Cortes et al., 2015; cited from earlier work
[2] = test system: L. infantum; experiment: Clinical evaluation (clinical score) in open-label randomized comparative clinical field trial of canine leishmaniosis; type: in vivo, dogs
Description: This was an open-label randomized comparative clinical field trial conducted in the north of Algeria. Prevalence observed in this area was 36%. Client-owned dogs of any age, breed, or gender were enrolled and 11 veterinary practitioners were responsible of the monitoring. All dogs had previously been naturally infected by L. infantum and presented clinical signs. The dogs were fully monitored and treatment could be changed to antimoniate meglumine/allopurinol at the owner's request if clinical impairment was noticed. A total of 187 dogs were enrolled for CanL. Among them, 42 adult sick dogs (30 males and 12 females), 3.8 years average age (min=1, max=11 years), weighing between 3-37 kg and of different breeds (8 german shepherd, 1 belgian shepherd malinois, 2 sloughy, 5 pointers, 6 braques, 1 bagnole, 1 americain staff, 1 beagle and 17 mixed breeds), were selected for this study.
Main inclusion criteria were: i) Dogs with at least two clinical manifestations related to CanL as detailed in the following Table 1) and ii) Dogs with positive serology for Leishmania by the immunochromatographic based qualitative rapid test WITNESS® Leishmania (Zoetis, France) and/or the quantitative indirect immunofluorescence antibody test (IFAT≥ 100) or positive PCR result obtained in blood.
Efficacy criteria were determined by reduction in clinical scores (i.e. the sum of clinical scores was lower than before treatment), in decreasing of parasite DNA and Leishmaniaspecific antibody titers. The score was defined according to the severity of each clinical sign and the final value was obtained from the sum of all the values (Table 1). Quantitative parasite load was estimated through qPCR and the antibody titers through quantitative IFAT. Table 1: Clinical signs related to CanL defined to evaluate the clinical scores of dogs.
Each manifestation was assigned a severity score ranging from 0 to 3, where 0 = none, 1 = mild, 2 = moderate, and 3 = severe (maximum total clinical score = 21). Mortality related to CanL was assessed by the highest score (22).
(§1) Selected dogs were included randomly to one of the two treatment arms. Dogs (N=26) in the Group 1: (positive control) received 100 mg/kg Antimoniate of meglumine (Glucantime®, Merial, France) daily for 28 days subcutaneously, and 30 mg/kg allopurinol (Allopurinol Arraw® 300 mg, France) orally daily for one month. Dogs (N=16) in the Group 2: (chemotherapy of the invention) received 25 mg/kg artesunate (Asu-Denk®; Denk Pharma, Germany) orally for 6 days. […] Dogs were followed up for 180 days (Figure 1).
(§2) Animals were checked on days D0, D+30, D+90 and D+180 after the treatment had started and blood samples were collected each time-points. Clinical signs and lesions associated with leishmaniosis, infection status (parasite load-qPCR and serological) were evaluated and monitored in these points.
The efficacy of treatments was assessed at each time-point based on the clinical response to treatment (evolution of clinical scores over time and the percentage reduction of the total clinical score). For each dog, the same veterinarian conducted all clinical evaluations to maintain consistency. Mortality due to CanL constitutes the higher score (22). The percentage of reduction was calculated according to the formula: Percentage reduction of CS % = (CSatD+XX−CSatD+0)/CS at D + 0) × 100 [formula]

[3] = test system: L. infantum DNA; experiment: Parasite load-qPCR in blood (kDNA) in the field trial; type: in vivo, dogs; design: Parasitemia (% of reduction): concentration or dose not given beside the values; conditions: for Parasitemia No. Leish/mL of blood / Parasitemia (% of reduction): individual dogs (one table line per dog); for Parasitemia No. Leish/mL of blood: artesunate 25 mg/kg orally 6 days, Glucantime 100 mg/kg s.c. 28 days + allopurinol 30 mg/kg orally one month
Protocol: as §1, §2
Blood samples collected in each time-point were analyzed for quantification of parasitic load by qPCR using primers and probe for detection and quantification of L. infantum DNA, targeting a conserved region of the kinetoplast minicircle DNA (kDNA) (several 1000's-fold repeated sequence). Prior to DNA extraction, 200 µL of blood were digested with proteinase K and incubated at +56°C overnight. Extraction was performed using a commercial DNA extraction kit (QIAamp DNA Mini Kit®, [Qiagen, Courtaboeuf, France]) and performed on BIOROBOT EZ1 (Qiagen, Qiagen, Courtaboeuf, France) per the manufacturer's instructions. DNA was eluted in 200 µl of distilled water and stored at -20°C until analysis. qPCR was prepared and performed as follows: 20 µL final volume containing 10 µL of Eurogentec Master Mix Roche (Eurogentec, Liège, Belgium), […] of each primer and the probe, 0.5 µL UDG, 3 µL of distilled water DNAse and RNAse free, and 5 µl of the DNA sample, was amplified in a CFX96 Real-Time system (BioRad Laboratories, Foster City, CA, USA) using the following thermal profile: one incubation step at 50°C for two minutes and an initial denaturation step at 95°C for three minutes, followed by 40 cycles of denaturation at 95°C for 15 seconds and annealing extension at 60°C for 30 seconds. Quantification was based on a standard curve which was 8 folds-serial dilution of plasmid of 10^8 copy of DNA/mL from the kDNA region, equivalent of 10000 parasites/mL; 5 µl of serial dilutions ranging from 10000 to 0.001 parasites/mL, was introduced into reaction tubes. Results were expressed as the number of Leishmania parasites present in 1 ml of blood, taking in account the volume (200 µl of blood) and the elution (200 µl) introduced during the extraction process.

[4] = test system: anti-L. infantum specific immunoglobulins G (IgG); experiment: Serological monitoring by quantitative IFAT in the field trial; type: in vivo, dogs; conditions: for Leishmania-antibody titers (mean ± SD), IFAT: artesunate 25 mg/kg orally 6 days, Glucantime 100 mg/kg s.c. 28 days + allopurinol 30 mg/kg orally one month
Protocol: as §1, §2
At day 0, the immunochromatographic based qualitative rapid test WITNESS® Leishmania (Zoetis, France) was performed according to the manufacturer's instructions using one drop (10 µL) of whole blood from each dog directly after sampling. Quantitative IFAT for the titration of anti-L. infantum specific immunoglobulins G (IgG) was performed on sera for the monitoring as described previously. Briefly, plate wells were sensitized by 20 µL of L. infantum commercial antigens (Zoetis, France). After dilution to 1:50, 20 µl of every serum dilution was applied per well and plates were incubated for 30 min at 37 °C. Plates were washed twice with PBS for 5 min and once with distilled water. 20 µL of IgG anti-dog conjugated with fluorescein isothiacyanate (FITC) (Sigma-Aldrich, St Louis, MO, USA) were added into each well. The plates were incubated for 30 min at 37 °C in the dark. After another washing step, some drops of mounting medium were added on the cover slips and reading was performed. To avoid errors of observation, all samples were examined by two different investigators and positive and negative controls were added in each plate. All samples negative at 1:50 were considered negative. Positive results were further investigated using a […] serial dilution IFAT at 1:100 to 1:1600. At this point, the samples were classified as a high positive for L. infantum (> 1:1600).

[5] = D+30, artesunate 25 mg/kg orally 6 days (n=15), Glucantime 100 mg/kg s.c. 28 days + allopurinol 30 mg/kg orally one month (n=26)
[6] = D+30, mortality related to CanL included, artesunate 25 mg/kg orally 6 days (n=15), Glucantime 100 mg/kg s.c. 28 days + allopurinol 30 mg/kg orally one month (n=26)
[7] = D+90, artesunate 25 mg/kg orally 6 days (n=15), Glucantime 100 mg/kg s.c. 28 days + allopurinol 30 mg/kg orally one month (n=23)
[8] = D+90, mortality related to CanL included, artesunate 25 mg/kg orally 6 days (n=15), Glucantime 100 mg/kg s.c. 28 days + allopurinol 30 mg/kg orally one month (n=23)
[9] = D+180, artesunate 25 mg/kg orally 6 days (n=15), Glucantime 100 mg/kg s.c. 28 days + allopurinol 30 mg/kg orally one month (n=22)
[10] = D+180, mortality related to CanL included, artesunate 25 mg/kg orally 6 days (n=15), Glucantime 100 mg/kg s.c. 28 days + allopurinol 30 mg/kg orally one month (n=22)

CC1CCC2C(C)C(O)OC3OC4(C)CCC1C32O4 (centres unmarked) [deoxygenated dihydroartemisinin]
in vitro activity against L. infantum life stage forms (promastigote and amastigote) [1]: in vitro activity

C[C@H]1[C@H](OC(=O)CCC(=O)O)O[C@@H]2O[C@@]3(C)CC[C@H]4[C@H](C)CC[C@@H]1[C@@]24OO3 [Artesunate]
mean percentage of reduction of clinical score, comparison between the two groups ([2]; D+30, D+90 and D+180, p<0.0001 (Mann-Whitney)): More improvement | PARTIAL AMELIORATION (%) [2, 5]: 80% | PARTIAL AMELIORATION, number of dogs [2, 5]: 12 | AGGRAVATION (%) [2, 6]: 20% | AGGRAVATION, number of dogs [2, 6]: 3 | COMPLETE AMELIORATION (%) [2, 7]: 20% | COMPLETE AMELIORATION, number of dogs [2, 7]: 3 | NO CHANGE (%) [2, 7]: 6.66% | NO CHANGE, number of dogs [2, 7]: 1 | PARTIAL AMELIORATION (%) [2, 7]: 53.33% | PARTIAL AMELIORATION, number of dogs [2, 7]: 8 | AGGRAVATION (%) [2, 8]: 20% | AGGRAVATION, number of dogs [2, 8]: 3 | PARTIAL AMELIORATION (%) ([2]; D+180 (6 months following up), artesunate 25 mg/kg orally 6 days (n=15), Glucantime 100 mg/kg s.c. 28 days + allopurinol 30 mg/kg orally one month (n=22)): 46.66% | COMPLETE AMELIORATION (%) (complete recovery, CS of 0) [2, 9]: approximately 26.66% | COMPLETE AMELIORATION, number of dogs [2, 9]: 4 | PARTIAL AMELIORATION, number of dogs [2, 9]: 7 | COMPLETE AMELIORATION (%) (complete recovery, CS of 0) ([2]; D+180, artesunate 25 mg/kg orally 6 days (n=15), Glucantime 100 mg/kg s.c. 28 days + allopurinol 30 mg/kg orally one month (n=22), listed as ARTESUNATE): 26.66% | AGGRAVATION (%) (clinical aggravation rates) [2, 10]: 26.66% | AGGRAVATION, number of dogs [2, 10]: 4 | mortality ([2]; D+180, part of the aggravation rate, artesunate 2/15, control group 4/22): 13.33% | dogs died with increasing in the clinical signs related to CanL ([2]; between D+60 after the beginning of treatments and the visit D+90): two | Parasitemia No. Leish/mL of blood ([3]; D+30): 0 No. Leish/mL of blood and 14 No. Leish/mL of blood and 44 No. Leish/mL of blood and 1,7 No. Leish/mL of blood and 0,17 No. Leish/mL of blood | Parasitemia (% of reduction) ([3]; D+30 versus D0): 100% and 19,54% and 63,93% and 99,27% and 98,45% | Parasitemia No. Leish/mL of blood ([3]; D+ 90): 0 No. Leish/mL of blood (3×) and 29 No. Leish/mL of blood | Parasitemia (% of reduction) ([3]; D+ 90 versus D0): 100% (3×) and -66,67% | Parasitemia No. Leish/mL of blood ([3]; D+ 180): 0 No. Leish/mL of blood | Parasitemia (% of reduction) ([3]; D+ 180 versus D0): 100% | initially PCR-positive dogs that turned out to be Leishmania-negative ([3]; qPCR in blood, over-time after treatment, dogs negative / dogs positive at D0): 5/5 | Leishmania-antibody titers (mean ± SD), IFAT ([4]; D+30): 128.57 ± 212.78 | dogs that became seronegative ([4]; D+ 30, artesunate 7/14, Glucantime/allopurinol 4/26): 50% | dogs with diminution in antibody titers ([4]; D+ 30, artesunate 11/14, Glucantime/allopurinol 15/26): 78.57% | Leishmania-antibody titers (mean ± SD), IFAT ([4]; D+ 180): 37.50 ± 60.77 | dogs turned seronegative ([4]; end of the follow-up, Group 1 5/17, Group 2 7/12, P-Value 0.227): 58.33% | percentage of reduction in antibody titers, comparison of groups ([4]; end of the study, P <0.0001): higher percentage of reduction | in vitro activity against L. infantum life stage forms (promastigote and amastigote) [1]: in vitro activity

CC1CCC2C(C)C(OC(=O)CCC(=O)O)OC3OC4(C)CCC1C32O4 (centres unmarked) [deoxygenated artesunate]
in vitro activity against L. infantum life stage forms (promastigote and amastigote) [1]: in vitro activity
